“Also recorded” adds a separate entry of the source. Like-named read-outs stand apart in the source and are kept apart here. One block for each molecule: values may come before it. *1 amine or outer side, *2 acyl side, *3 side chain or, on linkers, in order; H or OH if unused. Where a SMILES comes first, the peptide text is derived from it. [ ]: non-standard residue; d: D form. X1 = N=C(N)NC(=O)c1nc(Cl)c(N(CC(=O)[*:2])[*:1])nc1N
Key:
[1] = in vivo; cited from earlier work
[2] = target: T1, bovine pancreatic trypsin (Bos taurus, UniProt P00760); test: LCMS trypsin digest (negative control enzyme); assay type: biochemical; conditions: LCMS after incubation with enzyme
T1 construct: purchased Calbiochem; host or cells: bovine pancreas
T1 sequence (P00760 24-246): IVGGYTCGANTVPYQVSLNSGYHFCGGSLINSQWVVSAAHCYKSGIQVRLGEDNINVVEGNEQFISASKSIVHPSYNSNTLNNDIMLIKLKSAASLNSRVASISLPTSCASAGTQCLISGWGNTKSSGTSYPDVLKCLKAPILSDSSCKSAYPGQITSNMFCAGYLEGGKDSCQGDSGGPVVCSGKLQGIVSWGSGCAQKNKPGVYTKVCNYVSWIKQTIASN
Description: (§1) Compound 3b is a C5am-Gly-peptide conjugate containing two D-amino acids, and compound 3c is a C5 am-Gly-peptide conjugate coupled to a peptide to generate an analog of opioid peptides that cross the blood brain barrier (BBB). The resultant conjugates (compounds 3a-c) were tested for selective cleavage by the brain peptidase enkephalinase (neutral endopeptidase 24.11; Calbiochem) via incubation for 24 h in the presence or absence of the enzyme, and aliquots from the reaction solutions were then analyzed by LCMS to identify the C5am-Gly conjugate (compound 3a), starting material, and enzymatic cleavage products (see, Scheme 3). As negative control experiments, the conjugates were analyzed following treatment with (1) bovine pancreatic trypsin (Calbiochem) or (2) the buffer solutions without enzymes.

U87 glioma cells [3] = test: U87 glioma cell adherence to extracellular matrix (ECM); assay type: cell-based, human; conditions: for activity at 250 µM: Homo sapiens, U-87 MG, U87 cells on ECM, 4 h, read-out: % of control attachment at 4 h
Description: As shown in FIGS. 4A and B and, U87 glioma cells in logarithmic growth were trypsinized and washed ×1 with PBS. 4×10^5 cells were plated on to each ECM-coated well that was treated as indicated. Cells were monitored for adherence to the ECM. The numbers of attached cells in each well were manually counted using interference microscopy after 4 hours when adherence was complete. Experiments were performed in triplicate for each treatment and data expressed as mean+S.D. **statistically signif at P<0.001. Glioma cell morphology 4 h after plating as visualized by phase contrast microscopy.
To study adherence, wells in 24-well plates are coated with 200 ul of PBS (CMF Dulbecco's) containing one of the following ECM substrates: {i} […] {ii} vitronectin {iii} fibronectin {iv} lamininin-5. Plates are incubated 1 h at 37° C. then wells are washed once with prewarmed serum-free DMEM and the drug added to each well. Each treatment group, consisting of pretreated glioma cells (3×10^3 cells/well) is plated into 6 wells, and adhesion is evaluated at 60 min intervals over a 6-18 hour period, depending of the cell line. Unbound cells are gently dislodged with Dulbecco's PBS, while counting adherent cells in 10 random fields per each well under 10× magnification using an inverted microscope with interference phase optics and an ocular grid (21 mm^2). During the same time intervals, the percent value of spread cells with respect to adherent cells is evaluated.

U87 glioma cells [4] = test: U87 proliferation and survival, tetrazolium (WST) live cell assay and manual cell counts; assay type: cell-based, human; conditions: for activity at 250 µM: Homo sapiens, U-87 MG, 48 h treatment, read-out: cell numbers as % of control at 48 h (WST assay)
Description: Proliferation of U87 glioma cells was inhibited by AmC(5)-GlyOBn at 24 h. […] Manual cell counts, coupled with the trypan blue exclusion assay, determined the number of viable cells at 24 h and 48 h. Three separate experiments (n=6/exp) with S.D. as shown, *significance at P<0.01. Removal of AmC(5)-GlyOBn at 24 h caused cell numbers to increase by 48 h, as compared with U87 glioma cell numbers that continued to be treated with the drug for 48 h (Table 1).
Total live cell numbers per well were determined using a tetrazolium assay (WST).
WST […] that can be reduced in attached and detached live cells to formazon that is detected spectrophotometrically. Formazon formation has been determined to be proportional to glioma cell number for U87MG, U251, U373, and primary astrocytes. Absorbances are measured at 570 nm using a microtiter plate reader. Mean background absorbances of cell-free media (630 nm) are subtracted from these values. […] Identical concentrations of glioma cells are grown until 50% confluent on 60 mm plates. Following drug treatments, floating cells in media are collected and combined with adherent cells that were harvested following 0.25% v/v trypsin for 5 minutes (37° C.). The combined fractions are centrifuged at 350×g for 5 min. The resultant cell pellet is resuspended in equal volumes of PBS-CMF with 0.4% trypan blue.

U87 glioma cells [5] = test: U87 cell death, manual cell counts with trypan blue exclusion; assay type: cell-based, human; conditions: for % cell death, trypan blue: 250 microM, 48 h treatment
U87 glioma cells [6] = test: Cell permeation by fluorescent microscopy of U87 glioma cells; assay type: cell-based; conditions: 50 μM, 90-180 min incubation
Description: 27). The fluorescent extinction coefficient of each compound is determined using a spectrofluorometer and permits semi-quantitative estimations of intracellular drug accumulation.
U87 glioma cells were incubated with 50 uM of each compound for 180 min followed by washing the cells ×2 with PBS.

[7] = test system: intracerebral human U87 glioma xenografts; test: Intracerebral U87 glioma xenograft growth (NMR, stereology); assay type: in vivo, athymic rats
Description: The volume of U87 glioma xenografts were measured at different postimplantation times using the small animal 7 tesla NMR facility on UC Davis campus.
Determining tumor doubling time (hrs) in U87 xenografts were measured using small animal NMR.
Pretreatment of athymic rats with intracranial AmC(5)Gly-OBn for 3 days prior to implantation achieved steady-state brain levels as measured by HPLC-fluorometry. Following glioma cell implantation, once daily intracranial administration was continued for 10 days.
Rats (250-280 gm) are intubated with 4% isoflurane and air:O2 (2:1), maintained on 2% isoflurane, and placed into a Kopf stereotactic apparatus. Glioma cells at are harvested at 80% confluence, trypsinized, and then washed three times in sterile, isotonic phosphate buffered saline. Cells are counted in a hemocytometer and diluted to a final concentration of 1×10^4 cells per microL. 5 microL of glioma cells (5×10^4) are stereotaxically injected into a 0.5 mm pocket made by a 23 gauge needle in the left anterior corpus striatum (−1 mm bregma, +4 mm left lateral, −5.0 mm depth) under sterile conditions in a laminar flow hood.
Prior to imaging the rats are administered 0.5 cc of OMNISCAN gadodiamide intraperitoneally (NYCOMED). […] A gradient recalled echo sequence is obtained which furnished a single slice in sagittal, coronal, and transverse orientations (‘triplot’) and which served as a scout image to ensure proper positioning of the animal. Spectroscopic images are obtained with a 7 Tesla (300 MHz) BRUKER BIOSPEC 70/20 system with a 210 mm horizontal bore equipped with B-GA12 shim coils driven by BRUKER Shim Power Supply with a maximum of 2A of current for each shim. S116 birdcage design resonator coil (maximum current: 100 A and maximum voltage: 150V) of 72 mm maximum sample diameter with gradient strength of 200 mT/mm was used for both. T1-weighted images (TR/TE=500/20 msec) are obtained using the standard spin echo sequence in the transverse, sagittal as well as in the coronal direction. […] Multiple contiguous slices separated by 1 mm are collected using 3 sinc pulses each of 2 msec duration, and which cover the entire tumor in one scan. The average scan time is approx 60 sec for the entire T1-weighted protocol.
Cavalieri's method estimates the volume of a structure (in our case, glial tumor) by measuring the area of the structure in a number of evenly spaced “two-dimensional” sections. In our in vivo tumor model, the procedure involves a systematically random collection of 10 sections evenly spaced through the entire tumor. To perform this, the brain is cut into 40 micron coronal sections and every section is collected to encompass the entire tumor. When the anterior most portion of the tumor becomes visible in the series of sections, a die is thrown to determine if the first, second, third, fourth, or fifth section from that point should be the initial section saved for staining and area analysis. Henceforth, every tenth section is stained and tumor area measured. This ensures that each section through the tumor has an equal probability of being analyzed. Tumor area is estimated with suitable precision by applying to each section a point grid with a known area associated with each point (a/p). Tumor volume (V) is then calculated using the formula: V=(T)·(a/p) delta Pi; where T=distance between sections, P=points landing on the tumor on the ith section.

[8] = Neuropathology and behaviour with intracranial administration; assay type: in vivo
From the text: […]. For amiloride, parasaggital sections were stained with hematoxylin and eosin in addition to using specialized stains for neuronal damage (FluoroJade) and for myelinated fiber tracts (luxol fast blue). […].
. Each experimental and control group described below consist of a minimum of 10 animals per group. Experimental Design. The in vivo toxicity studies initially employ single, daily intracranial infusions of the candidate compound into a group of Sprague-Dawley rats for 13 days. Treated S-D animals are compared to a group of 10 control animals receiving intracranial drug vehicle injections. The infused drug concentration is based upon the cell line studies and adjusted for the low protein content of the cerebrospinal fluid which is 0.2% that of serum. Animals are behaviorally assessed for toxicity. […]. General Health and Behavioral Studies. Body weights and behavioral parameters are assessed daily in drug-treated and vehicle-treated rats during 12 day treatment paradigms. Currently, standardized behavior tests are used, which include quantitative measures of vestibulomotor function, fine motor coordination, ambulation, and spatial memory. A daily neurotoxicity behavioral sign checklist (72) to detect neurological signs of toxicity and seizures is also performed. Acquisition of spatial memory is particularly sensitive for detecting subtle drug toxicities (Preliminary Results). Body weight is used as a measure of general health. Neuropathological Studies: Cytological studies are performed in the same drug-treated and vehicle-treated rats at the conclusion of behavioral testing. Fixation and sectioning techniques are described in the Experimental Methods section. Hematoxylin and eosin are used routinely to survey for neuropathological changes. Luxol fast blue stains myelin tracts to evaluate potential white matter changes. […] Assessment of brainstem white matter tracts with luxol fast blue staining includes the spinocerebellar, vestibulospinal, corticospinal, spinothalamic. Specialized stains for reactive astrocytes, neuronal chromatolysis, etc. are added if brain lesions are detected. […]. Potential Problems and Alternatives. […]. […] These behavioral studies indicate the need to behaviorally assess treatment of the glioma tumor models.

[9] = phase II; cited from earlier work
rat breast cancer = conditions: in vivo; cited from earlier work
[10] = Incubation in buffer solutions without enzymes; assay type: physicochemical
Description: as §1

uPA = target: T2, uPA (Homo sapiens, UniProt P00749); test: uPA enzymatic inhibition with peptide-specific fluorogenic substrates; assay type: biochemical
T2 construct: uPA, tPA, and MMP-2 and MMP-9 enzymatic activities secreted by and contained within glioma cell lines; endogenous in cells; host or cells: U87 and other human glioma cell lines (homogenates, conditioned media)
Description: uPA, tPA, and MMP-2 and MMP-9 enzymatic activities secreted by and contained within glioma cell lines, normal astrocyte cultures, primary rat brain, and intracranial glioma xenograft homogenates are measured using commercial peptide analog substrates, that become fluorescent when enzymatically cleaved. Recombinant tPA was obtained from ASSAYPRO, CT1001.

NHE1 = target: T3, NHE1 (Homo sapiens, UniProt P19634); test: Sodium-proton exchange (NHE1) inhibition in glioma cells (BCECF fluorometry); assay type: cell-based
T3 construct: endogenous in cells; host or cells: glioma cell lines (U87)
Description: Sodium-proton type 1 (NHE1) and sodium-calcium transport (NCX) measurements in glioma cells. Inhibition of NHE in glioma cell lines using BCECF and quantitative fluorometry are routinely measured (McLean, L. A., et al., Malignant gliomas display altered pH regulation by NHE1 compared with nontransformed astrocytes. Am J Physiol Cell Physiol, 2000. 278(4): p. C676-88). IC50 of NCX transport bidirectionally is measured using whole cell patch clamping bidirectional NCX inhibition using a HEK-293 cell line transfected with NCX 1.1 obtained from J. Lytton (Dong, H., J. Dunn, and J. Lytton, Stoichiometry of the Cardiac Na+/Ca2+ exchanger NCX1.1 measured in transfected HEK cells. Biophys J, 2002. 82(4): p. 1943-52).

glioma cells = test: Glioma cell volume in vitro and in intracerebral xenografts (7 tesla NMR); assay type: cell-based

T3 sequence (P19634 whole entry): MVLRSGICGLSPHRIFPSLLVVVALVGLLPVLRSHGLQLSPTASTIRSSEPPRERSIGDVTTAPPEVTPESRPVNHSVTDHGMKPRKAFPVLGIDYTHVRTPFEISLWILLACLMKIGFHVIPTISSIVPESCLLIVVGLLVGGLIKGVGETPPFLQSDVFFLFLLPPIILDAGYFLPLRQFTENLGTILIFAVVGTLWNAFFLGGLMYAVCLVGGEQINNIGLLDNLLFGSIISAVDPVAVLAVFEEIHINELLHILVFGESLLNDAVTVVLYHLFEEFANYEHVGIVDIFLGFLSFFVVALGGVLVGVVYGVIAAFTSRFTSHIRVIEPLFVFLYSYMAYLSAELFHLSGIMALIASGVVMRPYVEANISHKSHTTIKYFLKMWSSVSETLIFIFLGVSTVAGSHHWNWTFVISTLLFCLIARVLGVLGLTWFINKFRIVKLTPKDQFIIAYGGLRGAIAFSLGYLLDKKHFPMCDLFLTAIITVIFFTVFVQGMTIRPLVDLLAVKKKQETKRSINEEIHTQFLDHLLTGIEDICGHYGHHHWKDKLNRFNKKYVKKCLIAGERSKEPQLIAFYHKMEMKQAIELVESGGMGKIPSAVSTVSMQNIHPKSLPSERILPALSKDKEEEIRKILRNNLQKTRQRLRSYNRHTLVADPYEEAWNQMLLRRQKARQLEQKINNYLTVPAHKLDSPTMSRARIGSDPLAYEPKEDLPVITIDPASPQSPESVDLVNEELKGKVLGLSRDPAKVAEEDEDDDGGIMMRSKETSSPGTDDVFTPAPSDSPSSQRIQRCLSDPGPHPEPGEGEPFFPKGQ

SMILES: NC(=NCc1ccc(Cl)cc1Cl)NC(=O)c1nc(Cl)c(N)nc1N [DCB, 2,4-dichlorobenzamil]
toxicity (in words) [1]: highly toxic and causes lethality when administered

cleavage by trypsin (in words) [2]: did not generate C5am-Gly
SMILES: CC(C)C[C@H](NC(=O)[C@H](Cc1ccccc1)NC(=O)CNC(=O)CNC(=O)CNC(=O)CNc1nc(N)c(C(=O)NC(=N)N)nc1Cl)C(=O)O [Compound 3c, C5am-Gly-Gly-Gly-Gly-Phe-Leu-OH] (H-[X1]GGGFL-OH)

SMILES: NC(N)=NC(=O)c1nc(Cl)c(N)nc1N [Amiloride, 3,5-diamino-6-chloro-N-(diaminomethylene)pyrazinecarboxamide]
activity at 250 µM (U87 glioma cells [3]): 58 ± 12%
activity at 250 µM (U87 glioma cells [4]): 31%
% cell death, trypan blue (U87 glioma cells [5]): (57) %
cell permeation (in words) (U87 glioma cells [6]): rapidly permeate cells
Doubling time ([7]; 10 mM amiloride reservoir (Alzet pump, infused days 12-17), day 10 post implant): 3.07 h
Doubling time ([7]; 10 mM amiloride reservoir, day 12 post implant): 3.4 h
Doubling time ([7]; 10 mM amiloride reservoir, day 15 post implant): 3.99 h
Doubling time ([7]; 10 mM amiloride reservoir, day 17 post implant): 4.44 h
Doubling time ([7]; 100 mM amiloride reservoir, 276 pmol/24 h (infused days 12-17), day 10 post implant): 1.23 h
Doubling time ([7]; 100 mM amiloride reservoir, 276 pmol/24 h, day 12 post implant): 1.98 h
Doubling time ([7]; 100 mM amiloride reservoir, 276 pmol/24 h, day 15 post implant): 4.58 h
Doubling time ([7]; 100 mM amiloride reservoir, 276 pmol/24 h, day 17 post implant): 11.65^++ hrs
xenograft tumor growth (in words) ([7]; intracranial administration): significantly slowed the growth rate
behavioral side effects and seizures (in words) ([8]; efficacious intracranial administration): observed
neuropathological changes in normal brain cell types (in words) ([8]; intracranial administration, 10-14 days): Neither compound produces neuropathological changes; also recorded: Neuropathological changes were not observed
animals with intermittent seizures ([8]; intrathecal amiloride infusion, S-D male rats): 3 of 8
spatial memory (in words) ([8]; intrathecal infusion): modestly affect spatial memory; also recorded: problems with spatial memory that persisted throughout the nine day infusion period
premature deaths (in words) ([8]; rat, in vivo): no premature deaths
motor performance (in words) ([8]; rats with intracerebral glioma xenografts, infusion): did not alter motor performance

SMILES: CCOC(=O)N1CCN(C(=O)[C@H](Cc2cccc(C(=N)N)c2)NS(=O)(=O)c2c(C(C)C)cc(C(C)C)cc2C(C)C)CC1.Cl [WX-UK1]
toxicity in clinical trials (in words) [9]: non-toxic
metastasis and primary tumour growth (in words) (rat breast cancer): suppresses rat breast cancer metastasis

cleavage by trypsin (in words) [2]: not cleaved
SMILES: CC(C)C[C@@H](NC(=O)[C@H](Cc1ccccc1)NC(=O)CNC(=O)[C@@H](C)NC(=O)CNc1nc(N)c(C(=O)NC(=N)N)nc1Cl)C(=O)O [Compound 3b, C5am-Gly-D-Ala-Gly-Phe-D-Leu-OH] (H-[X1][dA]GF[dL]-OH)
stability in control (buffer) digestion (in words) [10]: not cleaved

inhibition of uPA (in words) (uPA): reversible and micromolar inhibitor
inhibition of uPA (in words) (uPA; listed as AmC(5)-Gly-OH): selectively inhibit
inhibition of uPA (in words) (uPA; listed as AmC(5)Gly-OH): micromolar range
inhibition of uPA (in words) (uPA; listed as AmC(5)GlyOH): reversibly and comparably inhibit
inhibition of NHE1 (in words) (NHE1): reversible and micromolar inhibitor
IC50 (NHE1; glioma cells): 10 to 100 nM
potency of NHE1 inhibition relative to amiloride (NHE1; glioma cells): 100-1000 times
inhibition of NHE1 (in words) (NHE1; listed as AmC(5)Gly-OH): micromolar range
inhibition of NHE1 (in words) (NHE1; listed as AmC(5)GlyOH): reversibly and comparably inhibit
inhibition of NHE1 (in words) (NHE1; listed as C5am-Gly): rapidly reversed
cell permeation (in words) (U87 glioma cells [6]): does not permeate glioma cells
cell permeation (in words) (U87 glioma cells [6]; listed as AmC(5)Gly-OH): does not permeate cells
cell permeation (in words) (U87 glioma cells [6]; listed as AmC(5)GlyOH): does not
cleavage by trypsin (in words) [2]: unaffected
stability in control (buffer) digestion (in words) [10]: unaffected
SMILES: N=C(N)NC(=O)c1nc(Cl)c(NCC(=O)O)nc1N [AmC(5)Gly, amilorideC(5)-glycine-OH]
glioma cell adherence to ECM (in words) (U87 glioma cells [3]): does not affect
activity at 250 µM (U87 glioma cells [3]): 85 ± 15%
glioma cell proliferation (in words) (U87 glioma cells [4]): does not affect
activity at 250 µM (U87 glioma cells [4]): 93%
% cell death, trypan blue (U87 glioma cells [5]): (5) %
glioma cell death / viability (in words) (U87 glioma cells [5]; 48 h): does not affect
glioma cell volume (in words) (glioma cells): shrink glioma cell volumes
glioma cell volume (in words) (glioma cells; listed as AmC(5)Gly-OH): does reduce glioma cell volume

— patent publication US8546322B2, “Inhibitors of intracellular urokinase plasminogen activator and methods of use thereof” (The Regents of the University of California, priority 2007, dated 2013)
